Data reported in the supplement of paper PMC6965134.
± gives the standard deviation of the averaged measurements.

Assay: TIMS collisional cross section (CCS, N2) of the lipid ion; higher = larger ion cross section
Conditions: ionization mode: positive, one isomer drawn

| SMILES | TIMS collisional cross section (sample type: HeLa) [Å²] | TIMS collisional cross section (sample type: Liver) [Å²] | TIMS collisional cross section (sample type: plasma) [Å²] |
| --- | --- | --- | --- |
| CCCCCCCC/C=C\CCCCCCCCCCCC(=O)OC[C@@H](COC(=O)CCCCCCCCCCCCCCCCC)OC(=O)CCCCCCCCCCCCCCCCCCCCC [TG 18:0_22:0_22:1] (ion (formula + adduct): [C65H124O6+NH4] 1+) |  |  | 352.8 |
| CCCCCCCC/C=C\CCCCCCCCCCCC(=O)OC[C@@H](COC(=O)CCCCCCCCCCCCCCCCC)OC(=O)CCCCCCCCCCC/C=C\CCCCCCCC [TG 18:0_22:1_22:1] (ion (formula + adduct): [C65H122O6+NH4] 1+) | 350.2 |  |  |
| CCCCC/C=C\C/C=C\CCCCCCCC(=O)OC[C@@H](COC(=O)CCCCCCC/C=C\CCCCCCCC)OC(=O)CCCCCCC/C=C\CCCCCCCC [TG 18:1_18:1_18:2] (ion (formula + adduct): [C57H102O6+NH4] 1+) | 324.3 |  | 324.25 ± 0.35 |
| CCCCCCCC/C=C\CCCCCCCCCC(=O)OC[C@@H](COC(=O)CCCCCCC/C=C\CCCCCCCC)OC(=O)CCCCCCC/C=C\CCCCCCCC [TG 18:1_18:1_20:1] (ion (formula + adduct): [C59H108O6+NH4] 1+) | 332.1 |  | 332.4 |
| CCCCC/C=C\C/C=C\C/C=C\CCCCCCC(=O)OC[C@@H](COC(=O)CCCCCCC/C=C\CCCCCCCC)OC(=O)CCCCCCC/C=C\CCCCCCCC [TG 18:1_18:1_20:3] (ion (formula + adduct): [C59H104O6+NH4] 1+) |  | 330.2 |  |
| CCCCCCCC/C=C\CCCCCCCCCCCC(=O)OC[C@@H](COC(=O)CCCCCCC/C=C\CCCCCCCC)OC(=O)CCCCCCC/C=C\CCCCCCCC [TG 18:1_18:1_22:1] (ion (formula + adduct): [C61H112O6+NH4] 1+) | 337.8 |  |  |
| CCCCC/C=C\C/C=C\C/C=C\C/C=C\CCCCCC(=O)OC[C@@H](COC(=O)CCCCCCC/C=C\CCCCCCCC)OC(=O)CCCCCCC/C=C\CCCCCCCC [TG 18:1_18:1_22:4] (ion (formula + adduct): [C61H106O6+NH4] 1+) |  | 334.9 | 333.8 |
| CC/C=C\C/C=C\C/C=C\C/C=C\C/C=C\CCCCCC(=O)OC[C@@H](COC(=O)CCCCCCC/C=C\CCCCCCCC)OC(=O)CCCCCCC/C=C\CCCCCCCC [TG 18:1_18:1_22:5] (ion (formula + adduct): [C61H104O6+NH4] 1+) | 332.3 |  | 332.6 |
| CC/C=C\C/C=C\C/C=C\C/C=C\C/C=C\C/C=C\CCC(=O)OC[C@@H](COC(=O)CCCCCCC/C=C\CCCCCCCC)OC(=O)CCCCCCC/C=C\CCCCCCCC [TG 18:1_18:1_22:6] (ion (formula + adduct): [C61H102O6+NH4] 1+) | 331.3 |  |  |
| CCCCC/C=C\C/C=C\CCCCCCCC(=O)O[C@H](COC(=O)CCCCCCC/C=C\CCCCCCCC)COC(=O)CCCCCCC/C=C\CCCCCCCCC [TG 18:1_18:2_19:1] (ion (formula + adduct): [C58H104O6+NH4] 1+) | 327.7 | 327 | 327.3 |
| CCCCC/C=C\C/C=C\CCCCCCCC(=O)O[C@H](COC(=O)CCCCCCC/C=C\CCCCCCCC)COC(=O)CCCCCCCCCCCCCCCCCCC [TG 18:1_18:2_20:0] (ion (formula + adduct): [C59H108O6+NH4] 1+) |  | 332.3 |  |
| CCCCC/C=C\C/C=C\CCCCCCCC(=O)O[C@H](COC(=O)CCCCCCC/C=C\CCCCCCCC)COC(=O)CCCCCCCCC/C=C\CCCCCCCC [TG 18:1_18:2_20:1] (ion (formula + adduct): [C59H106O6+NH4] 1+) | 331.8 |  | 330.8 |
| CCCCC/C=C\C/C=C\C/C=C\C/C=C\CCCC(=O)OC[C@@H](COC(=O)CCCCCCC/C=C\CCCCCCCC)OC(=O)CCCCCCC/C=C\C/C=C\CCCCC [TG 18:1_18:2_20:4] (ion (formula + adduct): [C59H100O6+NH4] 1+) |  | 325.7 |  |
| CCCCC/C=C\C/C=C\C/C=C\C/C=C\CCCCCC(=O)OC[C@@H](COC(=O)CCCCCCC/C=C\CCCCCCCC)OC(=O)CCCCCCC/C=C\C/C=C\CCCCC [TG 18:1_18:2_22:4] (ion (formula + adduct): [C61H104O6+NH4] 1+) |  | 332.5 | 332.1 |
| CCCCCCCC/C=C\CCCCCCCCCC(=O)OC[C@@H](COC(=O)CCCCCCC/C=C\CCCCCCCC)OC(=O)CCCCCCCCCCCCCCCCCC [TG 18:1_19:0_20:1] (ion (formula + adduct): [C60H112O6+NH4] 1+) | 336.7 | 337 |  |
| CCCCCCCC/C=C\CCCCCCCC(=O)OC[C@H](COC(=O)CCCCCCCCCCCCCCCCCCCC)OC(=O)CCCCCCCCCCCCCCCCCCC [TG 18:1_20:0_21:0] (ion (formula + adduct): [C62H118O6+NH4] 1+) | 344.2 |  |  |

The remaining lines, values ahead:

| TIMS collisional cross section (sample type: HeLa) [Å²] | TIMS collisional cross section (sample type: Liver) [Å²] | TIMS collisional cross section (sample type: plasma) [Å²] | SMILES |
| --- | --- | --- | --- |
| 334.8 |  |  | CC/C=C\C/C=C\C/C=C\C/C=C\C/C=C\CCCCCC(=O)OC[C@@H](COC(=O)CCCCCCCCCCCCCCCCC)OC(=O)CCC/C=C\C/C=C\C/C=C\C/C=C\CCCCC [TG 18:0_20:4_22:5] (ion (formula + adduct): [C63H104O6+NH4] 1+) |
|  | 351.7 | 352.7 | CCCCCCCCCCCCCCCCCCCCCC(=O)OC[C@@H](COC(=O)CCCCCCCCCCCCCCCCC)OC(=O)CCCCCCCCCCCCCCCCCCCC [TG 18:0_21:0_22:0] (ion (formula + adduct): [C64H124O6+NH4] 1+) |
|  | 355.9 | 355.2 | CCCCCCCCCCCCCCCCCCCCCC(=O)OC[C@@H](COC(=O)CCCCCCCCCCCCCCCCC)OC(=O)CCCCCCCCCCCCCCCCCCCCC [TG 18:0_22:0_22:0] (ion (formula + adduct): [C65H126O6+NH4] 1+) |
|  |  | 351 | CCCCC/C=C\C/C=C\CCCCCCCCCCCC(=O)OC[C@@H](COC(=O)CCCCCCCCCCCCCCCCC)OC(=O)CCCCCCCCCCCCCCCCCCCCC [TG 18:0_22:0_22:2] (ion (formula + adduct): [C65H122O6+NH4] 1+) |
| 329.1 |  |  | CCCCCCCC/C=C\CCCCCCCC(=O)OC[C@H](COC(=O)CCCCCCC/C=C\CCCCCCCCC)OC(=O)CCCCCCC/C=C\CCCCCCCC [TG 18:1_18:1_19:1] (ion (formula + adduct): [C58H106O6+NH4] 1+) |
|  |  | 336.2 | CCCCCCCC/C=C\CCCCCCCC(=O)OC[C@H](COC(=O)CCCCCCCCCCCCCCCCCCCC)OC(=O)CCCCCCC/C=C\CCCCCCCC [TG 18:1_18:1_21:0] (ion (formula + adduct): [C60H112O6+NH4] 1+) |
|  | 339.7 | 339.3 | CCCCCCCC/C=C\CCCCCCCC(=O)OC[C@H](COC(=O)CCCCCCCCCCCCCCCCCCCCC)OC(=O)CCCCCCC/C=C\CCCCCCCC [TG 18:1_18:1_22:0] (ion (formula + adduct): [C61H114O6+NH4] 1+) |
|  | 322.5 ± 0.14 | 322.17 ± 0.57 | CCCCC/C=C\C/C=C\CCCCCCCC(=O)OC[C@@H](COC(=O)CCCCCCC/C=C\CCCCCCCC)OC(=O)CCCCCCC/C=C\C/C=C\CCCCC [TG 18:1_18:2_18:2] (ion (formula + adduct): [C57H100O6+NH4] 1+) |
|  |  | 319.9 | CC/C=C\C/C=C\C/C=C\CCCCCCCC(=O)OC[C@@H](COC(=O)CCCCCCC/C=C\CCCCCCCC)OC(=O)CCCCCCC/C=C\C/C=C\CCCCC [TG 18:1_18:2_18:3] (ion (formula + adduct): [C57H98O6+NH4] 1+) |
|  | 329.2 |  | CCCCC/C=C\C/C=C\CCCCCCCC(=O)O[C@H](COC(=O)CCCCCCC/C=C\CCCCCCCC)COC(=O)CCCCCCCCCCCCCCCCCC [TG 18:1_18:2_19:0] (ion (formula + adduct): [C58H106O6+NH4] 1+) |
|  | 334.4 |  | CCCCC/C=C\C/C=C\CCCCCCCC(=O)O[C@H](COC(=O)CCCCCCC/C=C\CCCCCCCC)COC(=O)CCCCCCCCCCCCCCCCCCCC [TG 18:1_18:2_21:0] (ion (formula + adduct): [C60H110O6+NH4] 1+) |
|  | 338.2 | 337.6 | CCCCC/C=C\C/C=C\CCCCCCCC(=O)O[C@H](COC(=O)CCCCCCC/C=C\CCCCCCCC)COC(=O)CCCCCCCCCCCCCCCCCCCCC [TG 18:1_18:2_22:0] (ion (formula + adduct): [C61H112O6+NH4] 1+) |
|  | 335.3 | 335 | CCCCC/C=C\C/C=C\CCCCCCCC(=O)O[C@H](COC(=O)CCCCCCC/C=C\CCCCCCCC)COC(=O)CCCCCCCCCCC/C=C\CCCCCCCC [TG 18:1_18:2_22:1] (ion (formula + adduct): [C61H110O6+NH4] 1+) |
|  |  | 335.8 | CCCCC/C=C\C/C=C\CCCCCCCCCCCC(=O)OC[C@@H](COC(=O)CCCCCCC/C=C\CCCCCCCC)OC(=O)CCCCCCC/C=C\C/C=C\CCCCC [TG 18:1_18:2_22:2] (ion (formula + adduct): [C61H108O6+NH4] 1+) |
|  |  | 329 | CC/C=C\C/C=C\C/C=C\C/C=C\C/C=C\C/C=C\CCC(=O)OC[C@@H](COC(=O)CCCCCCC/C=C\CCCCCCCC)OC(=O)CCCCCCC/C=C\C/C=C\CCCCC [TG 18:1_18:2_22:6] (ion (formula + adduct): [C61H100O6+NH4] 1+) |
|  | 344.9 |  | CCCCCCCC/C=C\CCCCCCCC(=O)OC[C@H](COC(=O)CCCCCCCCCCCCCCCCCCCCC)OC(=O)CCCCCCCCCCCCCCCCCC [TG 18:1_19:0_22:0] (ion (formula + adduct): [C62H118O6+NH4] 1+) |
| 334.6 |  |  | CC/C=C\C/C=C\C/C=C\C/C=C\C/C=C\C/C=C\CCC(=O)OC[C@@H](COC(=O)CCCCCCC/C=C\CCCCCCCC)OC(=O)CCCCCCC/C=C\CCCCCCCCC [TG 18:1_19:1_22:6] (ion (formula + adduct): [C62H104O6+NH4] 1+) |
